Test results from patent US8193192B2, “Heterocyclic FXR binding compounds” (Phenex Pharmaceuticals AG, priority 2006, dated 2012).

Key:
[1] = biological target: T1, human farnesoid X receptor (FXR) alpha ligand binding domain (Homo sapiens, UniProt Q96RI1); assay: FRET activity assay (ligand mediated cofactor peptide interaction, LANCE); type: biochemical; details: FXR-LBD/SRC-1 peptide interaction
T1 construct: made in house; host or cells: E. coli BL21(DE3), vector pDEST15
T1 sequence (Q96RI1 187-472 isoform Q96RI1-2): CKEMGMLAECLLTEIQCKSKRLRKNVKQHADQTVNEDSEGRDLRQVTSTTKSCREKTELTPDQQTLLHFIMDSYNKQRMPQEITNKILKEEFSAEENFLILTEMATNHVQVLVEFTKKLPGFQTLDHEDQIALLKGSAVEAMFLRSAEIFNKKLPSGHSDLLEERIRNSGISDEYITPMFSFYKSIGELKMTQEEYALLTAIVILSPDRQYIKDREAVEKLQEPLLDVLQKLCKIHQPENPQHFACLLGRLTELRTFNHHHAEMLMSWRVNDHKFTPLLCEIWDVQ
Method: Determination of a ligand mediated cofactor peptide interaction to quantify ligand binding to the nuclear receptor Farnesoid X Receptor (FXR) was performed as follows:
Preparation of human farnesoid X receptor (FXR) alpha ligand binding domain: The human FXRalpha ligand binding domain (LBD) was expressed in E. coli strain BL21(DE3) as an N-terminally glutathione-S-transferase (GST) tagged fusion protein. The DNA encoding the FXR ligand binding domain was cloned into vector pDEST15 (Invitrogen). Expression was under control of an IPTG inducible T7 promoter. The amino acid boundaries of the ligand binding domain were amino acids 187-472 of Database entry NM_005123 (RefSeq). Expression and purification of the FXR-LBD: An overnight preculture of a transformed E. coli strain was diluted 1:20 in LB-Ampicillin medium and grown at 30° C. to an optical density of OD600=0.4-0.6. Gene expression was then induced by addition of 0.5 mM IPTG. Cells were incubated an additional 6 h at 30° C., 180 rpm. Cells were collected by centrifugation (7000×g, 7 min, room temperature). Per liter of original cell culture, cells were resuspended in 10 ml lysis buffer (50 mM Glucose, 50 mM Tris pH 7.9, 1 mM EDTA and 4 mg/ml lysozyme) and left on ice for 30 min. Cells were then subjected to sonication and cell debris removed via centrifugation (22000×g, 30 min, 4° C.). Per 10 ml of supernatant 0.5 ml prewashed Glutathione 4B sepharose slurry (Qiagen) was added and the suspension kept slowly rotating for 1 h at 4° C. Glutathione 4B sepharose beads were pelleted by centrifugation (2000 g, 15 sec, 4° C.) and washed twice in wash buffer (25 mM Tris, 50 mM KCl, 4 mM MgCl2 and 1 M NaCl). The pellet was resuspended in 3 ml elution buffer per liter of original culture (elution buffer: 20 mM Tris, 60 mM KCl, 5 mM MgCl2 and 80 mM glutathione added immediately prior to use as powder). The suspension was left rotating for 15 min at 4° C., the beads pelleted and eluted again with half the volume of elution buffer than the first time. The eluates were pooled and dialysed overnight in 20 mM Hepes buffer (pH 7.5) containing 60 mM KCl, 5 mM MgCl2 as well as 1 mM dithiothreitol and 10% (v/v) glycerol. The protein was analysed by SDS-Page.
The method measures the ability of putative ligands to modulate the interaction between the purified bacterial expressed FXR ligand binding domain (LBD) and a synthetic biotinylated peptide based on residues 676-700 of SRC-1 (LCD2, 676-700). The sequence of the peptide used was B-[…]-COOH where the N-terminus was biotinylated (B). The ligand binding domain (LBD) of FXR was expressed as fusion protein with GST in BL-21 cells using the vector pDEST15. Cells were lysed by sonication, and the fusion proteins purified over glutathione sepharose (Pharmacia) according to the manufacturers instructions. […] For ease of handling and reduction of background from compound fluorescence LANCE technology makes use of generic fluorophore labels and time resolved detection Assays were done in a final volume of 25 μl in a 384 well plate, in a Tris-based buffer (20 mM Tris-HCl pH 7.5; 60 mM KCl, 5 mM MgCl2; 35 ng/μl BSA), containing 20-60 ng/well recombinantly expressed FXR-LBD fused to GST, 200-600 nM N-terminally biotinylated peptide, representing SRC1 aminoacids 676-700, 200 ng/well Streptavidin-xIAPC conjugate (Prozyme) and 6-10 ng/well Eu W1024-antiGST (Perkin Elmer). […]

melting point: 74 to 76 °C | EC50 [1]: ≤ 1000 nM
SMILES: Cc1cc(OCc2c(-c3c(Cl)cccc3Cl)noc2C(C)C)cnc1Oc1ccc(C(=O)O)cc1 [Example 3, 4-(5-((3-(2,6-Dichlorophenyl)-5-isopropylisoxazol-4-yl)methoxy)-3-methylpyridin-2-yloxy)benzoic acid]
